Several values for one entry are separate records, joined by “and”; a condition that tells them apart may be missing. Equal entries are not always repeated. Toxic doses and inconclusive results are not listed. The calls were made as follows: active = survival T/C of 150% or more; inactive = T/C below 125% in these data.
Test system: P388 leukemia ip, CD2F1 mice, survival T/C
Assay: NCI In Vivo Anticancer Drug Screen. Data for tumor model P388 Leukemia (intraperitoneal) in CD2F1 (CDF1) mice
Settings: endpoint: median survival time, higher = longer survival
Method in brief: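 Mice carrying the transplanted tumor received test compound or vehicle. Survival was recorded in each group, and the value is the treated-group measurement divided by that of the vehicle-treated control group.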

[1] = dose: 60.0 mg/kg/injection, schedule: Q01DX005 (ip), vehicle: saline with Tween-80
[2] = dose: 120.0 mg/kg/injection, schedule: Q01DX005 (ip), vehicle: saline with Tween-80
[3] = dose: 240.0 mg/kg/injection, schedule: Q01DX005 (ip), vehicle: saline with Tween-80
[4] = dose: 50.0 mg/kg/injection, schedule: Q01DX005 (ip), vehicle: saline with Tween-80
[5] = dose: 100.0 mg/kg/injection, schedule: Q01DX005 (ip), vehicle: saline with Tween-80
[6] = dose: 200.0 mg/kg/injection, schedule: Q01DX005 (ip), vehicle: saline with Tween-80
[7] = dose: 50.0 mg/kg/injection, schedule: Q01DX009 (ip), vehicle: Klucel (hydroxypropylcellulose) (HPC)
[8] = dose: 100.0 mg/kg/injection, schedule: Q01DX009 (ip), vehicle: Klucel (hydroxypropylcellulose) (HPC)
[9] = dose: 200.0 mg/kg/injection, schedule: Q01DX009 (ip), vehicle: Klucel (hydroxypropylcellulose) (HPC)
[10] = dose: 50.0 mg/kg/injection, schedule: Q01DX005 (ip), vehicle: Klucel (hydroxypropylcellulose) (HPC)
[11] = dose: 100.0 mg/kg/injection, schedule: Q01DX005 (ip), vehicle: Klucel (hydroxypropylcellulose) (HPC)
[12] = dose: 200.0 mg/kg/injection, schedule: Q01DX005 (ip), vehicle: Klucel (hydroxypropylcellulose) (HPC)

Measured: T/C

CC(=O)c1c(O)c(C)c(O)c2c1OC1=Cc3c(c(C)nn3C)C(=O)C12C (centres undefined)
inactive: dose: 6.25 mg/kg/injection, schedule: Q01DX009 (ip), vehicle: gum acacia 100 % of control and 109 % of control | dose: 50.0 mg/kg/injection, schedule: Q01DX009 (ip), vehicle: gum acacia 119 % of control and 92 % of control and 93 % of control

CCCC1N[C@H](C(=O)O)CS1 (some centres undefined)
inactive: dose: 50.0 mg/kg/injection, schedule: Q01DX001 (ip), vehicle: Klucel (hydroxypropylcellulose) (HPC) 100 % of control | dose: 100.0 mg/kg/injection, schedule: Q01DX001 (ip), vehicle: Klucel (hydroxypropylcellulose) (HPC) 97 % of control | dose: 200.0 mg/kg/injection, schedule: Q01DX001 (ip), vehicle: Klucel (hydroxypropylcellulose) (HPC) 102 % of control | dose: 400.0 mg/kg/injection, schedule: Q01DX001 (ip), vehicle: Klucel (hydroxypropylcellulose) (HPC) 100 % of control

CCOC(Cn1nc(SC)nc1N)OCC
inactive: dose: 100.0 mg/kg/injection, schedule: Q04DX002 (ip), vehicle: water 108 % of control | dose: 200.0 mg/kg/injection, schedule: Q04DX002 (ip), vehicle: water 104 % of control | dose: 400.0 mg/kg/injection, schedule: Q04DX002 (ip), vehicle: water 109 % of control

CN(C)CC(CN(C)C)C(=O)/C=C/c1ccc(OCc2ccccc2)cc1
inactive: dose: 6.25 mg/kg/injection, schedule: Q01DX005 (ip), vehicle: saline 104 % of control | dose: 12.5 mg/kg/injection, schedule: Q01DX005 (ip), vehicle: saline 97 % of control

O=C(Nc1ccccc1)Nc1ccccc1C(=O)O
inactive: dose: 50.0 mg/kg/injection, schedule: Q04DX003 (ip), vehicle: Klucel (hydroxypropylcellulose) (HPC) 100 % of control | dose: 100.0 mg/kg/injection, schedule: Q04DX003 (ip), vehicle: Klucel (hydroxypropylcellulose) (HPC) 107 % of control | dose: 200.0 mg/kg/injection, schedule: Q04DX003 (ip), vehicle: Klucel (hydroxypropylcellulose) (HPC) 109 % of control | dose: 400.0 mg/kg/injection, schedule: Q04DX003 (ip), vehicle: Klucel (hydroxypropylcellulose) (HPC) 93 % of control

O=[N+]([O-])c1cccc(C2=NON(c3ccccn3)C3C=CC=CN23)c1 (centres undefined)
inactive: [1] 94 % of control | [2] 90 % of control | [3] 92 % of control

COc1ccccc1NC(=O)c1cc2cc(Br)ccc2cc1O
inactive: [1] 100 % of control | [2] 102 % of control | [3] 108 % of control

CCOC(=O)COc1ccc2c(=O)c(C)c(-c3ccccc3)oc2c1
inactive: dose: 50.0 mg/kg/injection, schedule: Q01DX009 (ip), vehicle: saline 97 % of control | dose: 100.0 mg/kg/injection, schedule: Q01DX009 (ip), vehicle: saline 101 % of control | dose: 200.0 mg/kg/injection, schedule: Q01DX009 (ip), vehicle: saline 97 % of control

CCCC1OCC2OC(Nc3ccccc3)C(O)C(O)C2O1 (centres undefined)
inactive: [4] 103 % of control | [5] 98 % of control | [6] 103 % of control

NC(Cc1ccc2ccccc2c1Br)C(=O)O (centres undefined)
inactive: [7] 99 % of control | [8] 99 % of control | [9] 97 % of control

Nc1c(S)cc(O)c2c1C(=O)c1ccccc1C2=O
inactive: [10] 99 % of control | [11] 103 % of control | [12] 107 % of control

Fc1cccc(CSc2ncnc3nc[nH]c23)c1
inactive: dose: 25.0 mg/kg/injection, schedule: Q01DX009 (ip), vehicle: saline with Tween-80 104 % of control | dose: 25.0 mg/kg/injection, schedule: Q04DX003 (ip), vehicle: saline with Tween-80 95 % of control | dose: 50.0 mg/kg/injection, schedule: Q01DX009 (ip), vehicle: saline with Tween-80 95 % of control | dose: 50.0 mg/kg/injection, schedule: Q04DX003 (ip), vehicle: saline with Tween-80 90 % of control | dose: 100.0 mg/kg/injection, schedule: Q01DX009 (ip), vehicle: saline with Tween-80 104 % of control | dose: 100.0 mg/kg/injection, schedule: Q04DX003 (ip), vehicle: saline with Tween-80 100 % of control and 104 % of control | dose: 200.0 mg/kg/injection, schedule: Q04DX003 (ip), vehicle: saline with Tween-80 100 % of control

CC[n+]1c2ccc(C)cc2nc2c3ccccc3c(N)cc21
inactive: dose: 5.0 mg/kg/injection, schedule: Q01DX009 (ip), vehicle: saline 110 % of control | dose: 10.0 mg/kg/injection, schedule: Q01DX009 (ip), vehicle: saline 106 % of control | dose: 20.0 mg/kg/injection, schedule: Q01DX009 (ip), vehicle: saline 99 % of control

CCOC(=O)C1=C(C(=O)c2ccc(OC)cc2)C(c2ccc([N+](=O)[O-])cc2)C(C(=O)c2ccc(OC)cc2)=C(C(=O)OCC)N1
inactive: [1] 89 % of control | [2] 89 % of control | [3] 93 % of control

COc1c(O)cc2c(c1O)C1OC(CO)C(O)C(O)C1OC2=O (centres undefined)
inactive: dose: 12.75 mg/kg/injection, schedule: Q01DX005 (ip), vehicle: Klucel (hydroxypropylcellulose) (HPC) 100 % of control | dose: 25.5 mg/kg/injection, schedule: Q01DX005 (ip), vehicle: Klucel (hydroxypropylcellulose) (HPC) 98 % of control | dose: 51.0 mg/kg/injection, schedule: Q01DX005 (ip), vehicle: Klucel (hydroxypropylcellulose) (HPC) 97 % of control | dose: 102.0 mg/kg/injection, schedule: Q01DX005 (ip), vehicle: Klucel (hydroxypropylcellulose) (HPC) 100 % of control

C[n+]1cc2ccccc2cc1CC(=S)[S-]
inactive: dose: 25.0 mg/kg/injection, schedule: Q01DX009 (ip), vehicle: Klucel (hydroxypropylcellulose) (HPC) 98 % of control | [7] 98 % of control | [8] 99 % of control | [9] 91 % of control

CCC1(C#N)N=C(c2ccccc2)c2ccccc2N1C(=O)Oc1ccccc1 (centres undefined)
inactive: [4] 89 % of control | [5] 98 % of control | [6] 95 % of control

Nc1nnc(COc2ccc(Cl)cc2)n1N
inactive: [1] 107 % of control | [2] 108 % of control

O=C(/C(O)=C(\O)C(=O)N(C1CCCCC1)C1CCCCC1)N(C1CCCCC1)C1CCCCC1
inactive: dose: 25.0 mg/kg/injection, schedule: Q01DX005 (ip), vehicle: Klucel (hydroxypropylcellulose) (HPC) 100 % of control | [10] 96 % of control | [11] 100 % of control | [12] 92 % of control

COc1cc2c(cc1OC)C1C(CC(=O)O)CCCN1CC2 (centres undefined)
inactive: [10] 112 % of control | [11] 100 % of control | [12] 100 % of control

C=CCC1(C)C=C(C)C(=O)C(C)=C1
inactive: [1] 105 % of control | [2] 102 % of control | [3] 104 % of control

Reference: PubChem BioAssay AID330 (DTP/NCI, 2004)
